This is an account of results in ChEMBL document CHEMBL3137667, “[Drug-induced liver injury; fourteenth updated edition of the bibliographic database of liver injuries and related drugs]” (Gastroenterol Clin Biol, 2004).

The conditions of data set [1]: human.
For data set [2] the following is noted: human. The source holds these as a separate data set.
The conditions of data set [3]: human, serum.
For data set [4] the following is noted: human. This is another data set of the same source.
For data set [5] the following is noted: human. This is another data set of the same source.
Data set [6] is described as follows: Highest frequency of acute liver toxicity observed during clinical trials, expressed as a percentage. [column '% AIGUE' in source]. As to conditions: human.
Data set [7] in a line: Highest frequency of moderate liver toxicity observed during clinical trials, expressed as a percentage. [column '% BIOL' in source]. As to conditions: human.
For data set [8] the following is noted: human. This is another data set of the same source.
The conditions of data set [9]: human. This is another data set of the same source.
The conditions of data set [10]: human. This is another data set of the same source.
For data set [11] the following is noted: human. The source holds these as a separate data set.
The conditions of data set [12]: human, serum. This is another data set of the same source.
For data set [13] the following is noted: human, serum, 4383 h.
For data set [14] the following is noted: human. The source holds these as a separate data set.
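Throughout, for Hepatotoxicity (association with vascular disease): count of indexed literature references reporting vascular liver injury in humans, e.g. peliosis hepatitis, hepatic veno-occlusive disease or Budd-Chiari syndrome.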
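Throughout, for Hepatotoxicity (benign tumour): value is a count of indexed literature references citing a benign tumour confirmed by histopathology.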
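Throughout, for Hepatotoxicity (choleostasis): human cholestatic liver injury, shown by histopathology or by peak ALT or AST elevation over alkaline phosphatase ratio below 2, value counts indexed literature reports.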
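Throughout, for Hepatotoxicity (chronic liver disease): chronic liver injury confirmed by histopathology or persistently raised serum aminotransferase activity beyond 6 months, value given as the count of indexed literature references.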
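Throughout, for Hepatotoxicity (cirrhosis): value is a count of indexed literature references reporting cirrhosis confirmed by histopathology.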
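Throughout, for Hepatotoxicity (cytolytic): human cytolytic liver injury, shown by histopathology or by a ratio above 5 of peak ALT or AST elevation to alkaline phosphatase elevation, value counts indexed references.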
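Throughout, for Hepatotoxicity (granulomatous hepatitis): value is a count of indexed literature references reporting granulomatous liver disease confirmed by histopathology.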
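Throughout, for Hepatotoxicity (malignant tumour): malignant tumour confirmed by histopathology, value gives the count of indexed literature references reporting it.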
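Throughout, for Hepatotoxicity (severe hepatitis): human clinical data: severe hepatitis, meaning potentially life-threatening liver failure or clinically observed cases, the value counts how many indexed literature references report it.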
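Throughout, for Hepatotoxicity (steatosis): steatosis confirmed by histopathology, value is the count of indexed references.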

With `CC(=N)N1CC[C@H](SC2=C(C(=O)O)N3C(=O)[C@H]([C@@H](C)O)[C@H]3C2)C1.O=C(O)CCNC(=O)c1ccccc1`, the “Hepatotoxicity (cirrhosis)” value in data set [1] is on record as 0. Further, the “Hepatotoxicity (steatosis)” value in data set [2] was found to be 0. Also, the “Hepatotoxicity (moderate)” value in [3] is 60; in data set [7], 38.5%. For the same compound, in [4], the “Hepatotoxicity (granulomatous hepatitis)” value is on record as 0. Further, in [5], the “Hepatotoxicity (choleostasis)” value was found to be 1. Also, the “Hepatotoxicity (acute)” value was found to be 0% in data set [6] and 1 in data set [12]. In addition, the “Hepatotoxicity (benign tumour)” value in data set [8] amounted to 0. The “Hepatotoxicity (association with vascular disease)” value in [9] stood at 0. For the same compound, the “Hepatotoxicity (cytolytic)” value in data set [10] stood at 0. Moreover, the “Hepatotoxicity (malignant tumour)” value in [11] was 0. Besides, in data set [13], the “Hepatotoxicity (chronic liver disease)” value is reported as 0. Also, the “Hepatotoxicity (severe hepatitis)” value in data set [14] worked out at 0.
Regarding CAPROMAB PENDETIDE, in data set [1], the “Hepatotoxicity (cirrhosis)” value is 0. Further, the “Hepatotoxicity (steatosis)” value in data set [2] is given as 0. The figures for the “Hepatotoxicity (moderate)” value in data set [3] and in data set [7] were 1 and less than 1%, respectively. The “Hepatotoxicity (granulomatous hepatitis)” value in [4] amounted to 0. In addition, in data set [5], the “Hepatotoxicity (choleostasis)” value came out at 0. In addition, the “Hepatotoxicity (acute)” value in [6] stood at 0%; in data set [12], 0. Further, the “Hepatotoxicity (benign tumour)” value in data set [8] was 0. Also, in data set [9], the “Hepatotoxicity (association with vascular disease)” value turned out to be 0. In data set [10], the “Hepatotoxicity (cytolytic)” value was 0. In addition, the “Hepatotoxicity (malignant tumour)” value in data set [11] is given as 0. Also, in data set [13], the “Hepatotoxicity (chronic liver disease)” value came to 0. Moreover, in data set [14], the “Hepatotoxicity (severe hepatitis)” value came to 0.
Take `CC(C)CN(C[C@@H](O)[C@H](Cc1ccccc1)NC(=O)O[C@H]1CCOC1)S(=O)(=O)c1ccc(N)cc1`: in data set [1], the “Hepatotoxicity (cirrhosis)” value was determined as 0. The “Hepatotoxicity (steatosis)” value in data set [2] is on record as 0. The “Hepatotoxicity (moderate)” value was found to be 0 in data set [3] and 0% in data set [7]. In addition, in [4], the “Hepatotoxicity (granulomatous hepatitis)” value was 0. The “Hepatotoxicity (choleostasis)” value in data set [5] was found to be 0. Further, the “Hepatotoxicity (acute)” value in data set [6] is 10.7%; in [12], 3. The “Hepatotoxicity (benign tumour)” value in data set [8] was determined as 0. In addition, the “Hepatotoxicity (association with vascular disease)” value in data set [9] is given as 0. Further, the “Hepatotoxicity (cytolytic)” value in [10] worked out at 3. In addition, the “Hepatotoxicity (malignant tumour)” value in data set [11] turned out to be 0. In addition, the “Hepatotoxicity (chronic liver disease)” value in data set [13] amounted to 0. Besides, the “Hepatotoxicity (severe hepatitis)” value in data set [14] is 0.
With `CC(C)(C)C(=O)OCOC(=O)[C@@H]1N2C(=O)[C@@H](/N=C/N3CCCCCC3)[C@H]2SC1(C)C` [AMDINOCILLIN PIVOXIL], the “Hepatotoxicity (cirrhosis)” value in data set [1] is 0. Also, the “Hepatotoxicity (steatosis)” value in data set [2] was 0. Besides, the “Hepatotoxicity (moderate)” value in data set [3] stood at 1; in data set [7] it was 17.2%. Also, the “Hepatotoxicity (granulomatous hepatitis)” value in [4] worked out at 0. Moreover, in data set [5], the “Hepatotoxicity (choleostasis)” value is reported as 0. Also, the “Hepatotoxicity (acute)” value is recorded as 0% in data set [6] and 0 in [12]. Also, the “Hepatotoxicity (benign tumour)” value in data set [8] stood at 0. Besides, in data set [9], the “Hepatotoxicity (association with vascular disease)” value stood at 0. In data set [10], the “Hepatotoxicity (cytolytic)” value came to 0. In addition, the “Hepatotoxicity (malignant tumour)” value in data set [11] is given as 0. Further, the “Hepatotoxicity (chronic liver disease)” value in data set [13] is listed as 0. Besides, the “Hepatotoxicity (severe hepatitis)” value in [14] was 0.
For the compound `C[C@H]1O[C@@H](O[C@H]2[C@@H](O)C[C@H](O[C@H]3[C@@H](O)C[C@H](O[C@H]4CC[C@@]5(C)[C@H](CC[C@@H]6[C@@H]5C[C@@H](O)[C@]5(C)[C@@H](C7=CC(=O)OC7)CC[C@]65O)C4)O[C@@H]3C)O[C@@H]2C)C[C@H](O)[C@@H]1O` [DIGOXIN], the “Hepatotoxicity (cirrhosis)” value in data set [1] came to 0. Moreover, in data set [2], the “Hepatotoxicity (steatosis)” value is listed as 0. Moreover, the “Hepatotoxicity (moderate)” value in [3] was determined as 1; in data set [7], 8.3%. The “Hepatotoxicity (granulomatous hepatitis)” value in data set [4] is 0. For the same compound, the “Hepatotoxicity (choleostasis)” value in data set [5] is on record as 0. The “Hepatotoxicity (acute)” value in data set [6] is recorded as 0%; in data set [12], 0. Moreover, in data set [8], the “Hepatotoxicity (benign tumour)” value was determined as 0. Besides, the “Hepatotoxicity (association with vascular disease)” value in data set [9] stood at 0. In data set [10], the “Hepatotoxicity (cytolytic)” value amounted to 0. Further, in [11], the “Hepatotoxicity (malignant tumour)” value came out at 0. For the same compound, in [13], the “Hepatotoxicity (chronic liver disease)” value came out at 0. In addition, in data set [14], the “Hepatotoxicity (severe hepatitis)” value was 0.
Regarding TINZAPARIN SODIUM, the “Hepatotoxicity (cirrhosis)” value in data set [1] came to 0. For the same compound, the “Hepatotoxicity (steatosis)” value in data set [2] was 0. The figures for the “Hepatotoxicity (moderate)” value in [3] and in [7] were 3 and 35%, respectively. For the same compound, in data set [4], the “Hepatotoxicity (granulomatous hepatitis)” value turned out to be 0. Moreover, in data set [5], the “Hepatotoxicity (choleostasis)” value was 0. In addition, the “Hepatotoxicity (acute)” value in data set [6] came to 0%; in data set [12], 0. Moreover, the “Hepatotoxicity (benign tumour)” value in data set [8] stood at 0. Further, in [9], the “Hepatotoxicity (association with vascular disease)” value worked out at 0. Besides, in data set [10], the “Hepatotoxicity (cytolytic)” value was 0. Also, the “Hepatotoxicity (malignant tumour)” value in data set [11] worked out at 0. For the same compound, the “Hepatotoxicity (chronic liver disease)” value in data set [13] is 0. In data set [14], the “Hepatotoxicity (severe hepatitis)” value stood at 0.
In the case of `Nc1ncn([C@@H]2O[C@H](CO)[C@@H](O)[C@@H]2O)c(=O)n1` [FAZARABINE], the “Hepatotoxicity (cirrhosis)” value in [1] is 0. In addition, in [2], the “Hepatotoxicity (steatosis)” value is recorded as 0. Besides, the “Hepatotoxicity (moderate)” value in [3] was 1; in [7] (Liver), 46.4%. Further, the “Hepatotoxicity (granulomatous hepatitis)” value in data set [4] (Liver) worked out at 0. For the same compound, the “Hepatotoxicity (choleostasis)” value in data set [5] (Liver) is on record as 0. In addition, the “Hepatotoxicity (acute)” value in data set [6] (Liver) was determined as 0%; in data set [12], 0. In data set [8], the “Hepatotoxicity (benign tumour)” value worked out at 0. In addition, in data set [9], the “Hepatotoxicity (association with vascular disease)” value stood at 0. For the same compound, the “Hepatotoxicity (cytolytic)” value in data set [10] (Liver) turned out to be 0. The “Hepatotoxicity (malignant tumour)” value in [11] is on record as 0. In addition, the “Hepatotoxicity (chronic liver disease)” value in data set [13] is on record as 0. In data set [14] (Liver), the “Hepatotoxicity (severe hepatitis)” value is on record as 0.
For `O=C(O)C[C@H](O)C[C@H](O)/C=C/c1c(C2CC2)nc2ccccc2c1-c1ccc(F)cc1` [PITAVASTATIN], the “Hepatotoxicity (cirrhosis)” value in [1] came to 0. In addition, in [2], the “Hepatotoxicity (steatosis)” value stood at 0. Moreover, the “Hepatotoxicity (moderate)” value is given as 1 in data set [3] and 1.7% in data set [7] (Liver). The “Hepatotoxicity (granulomatous hepatitis)” value in [4] is 0. The “Hepatotoxicity (choleostasis)” value in data set [5] was 0. Also, the results for the “Hepatotoxicity (acute)” value in data set [6] (Liver) and in data set [12] were 0% and 0, respectively. For the same compound, in [8], the “Hepatotoxicity (benign tumour)” value amounted to 0. Further, in data set [9], the “Hepatotoxicity (association with vascular disease)” value was 0. Further, the “Hepatotoxicity (cytolytic)” value in data set [10] was determined as 0. Further, the “Hepatotoxicity (malignant tumour)” value in data set [11] came out at 0. Also, in data set [13], the “Hepatotoxicity (chronic liver disease)” value stood at 0. In data set [14] (Liver), the “Hepatotoxicity (severe hepatitis)” value is 0.
As for `NS(=O)(=O)Cc1noc2ccccc12` [ZONISAMIDE], the “Hepatotoxicity (cirrhosis)” value in [1] came to 0. Moreover, the “Hepatotoxicity (steatosis)” value in [2] came to 0. Moreover, the “Hepatotoxicity (moderate)” value is on record as 2 in [3] and 4.2% in [7]. The “Hepatotoxicity (granulomatous hepatitis)” value in data set [4] was found to be 0. In addition, the “Hepatotoxicity (choleostasis)” value in data set [5] stood at 0. In addition, the “Hepatotoxicity (acute)” value worked out at 0% in [6] and 0 in data set [12]. In data set [8], the “Hepatotoxicity (benign tumour)” value is listed as 0. The “Hepatotoxicity (association with vascular disease)” value in data set [9] stood at 0. Besides, in data set [10], the “Hepatotoxicity (cytolytic)” value was 0. Further, the “Hepatotoxicity (malignant tumour)” value in [11] was 0. Moreover, in data set [13], the “Hepatotoxicity (chronic liver disease)” value turned out to be 0. For the same compound, the “Hepatotoxicity (severe hepatitis)” value in data set [14] is reported as 0.
